# In article PMC11852925 (2025):
# Columns and labels:
# Experiment in all cases: fluorescence titration, multiwavelength global analysis
# [1] = test system: ds26 (DNA, duplex) CAATCGGATCGAATTCGATCCGATTG; details: 100 mM KCl, 10 mM K-phosphate pH 7.0, 295 K
# [2] = test system: hTel22 (DNA, G4) AGGGTTAGGGTTAGGGTTAGGG; details: 100 mM KCl, 10 mM K-phosphate pH 7.0, 295 K, 1:1 complex
# [3] = test system: c-myc22 (DNA, G4) GAGGGTGGGGAGGGTGGGGAAG; details: 100 mM KCl, 10 mM K-phosphate pH 7.0, 295 K, 1:1 complex
# [4] = test system: hTel45 (DNA, G4) GGGTTAGGGTTAGGGTTAGGGTTAGGGTTAGGGTTAGGGTTAGGG; details: 100 mM KCl, 10 mM K-phosphate pH 7.0, 295 K
compound,measurement,setting,value
CCCNC(=O)c1ccc2[nH]c3c([nH]c2c1)c1c(=O)n(CCCN(C)C)c(=O)c2ccc4c(=O)n(CCCN(C)C)c(=O)c3c4c21,logK,"[1]; per site of 1:2 complex, cumulative 1:2 15.25, 1:4 29.15",7.6
same,logK,"[2]; ligand dimerization (logK 6.6) included, cumulative 1:2 logK 14.04",7.64 ± 0.16
same,logK,"[3]; dimerization (logK 6.6) included, cumulative 1:2 14.74",6.89 ± 0.05
same,logK,"[4]; cumulative constant of 1:2 (DNA:ligand) complex, 1:4 28.6, dimerization included",14.41 ± 0.05
CN(C)CCCN1C(=O)c2ccc3c4c(c(NCCCCCCCNC(=O)c5ccc6[nH]c7c([nH]c6c5)c5c(=O)n(CCCN(C)C)c(=O)c6ccc8c(=O)n(CCCN(C)C)c(=O)c7c8c65)cc(c24)C1=O)C(=O)N(CCCN(C)C)C3=O,logK,"[1]; 1:1 complex, cumulative 1:2 12.95, 1:3 18.35",6.50 ± 0.03
same,logK,"[2]; cumulative 1:2 15.71, 2:1 (DNA:dyad) 14.14",8.93 ± 0.07
same,logK,[3]; cumulative 1:2 13.78,6.16 ± 0.02
same,logK,"[4]; 1:1 complex, cumulative 1:2 12.94, 1:4 25.52, 2:1 13.24",7.91 ± 0.07
CN(C)CCCN1C(=O)c2ccc3c4c(c(NCc5cn(CCCNC(=O)c6ccc7[nH]c8c([nH]c7c6)c6c(=O)n(CCCN(C)C)c(=O)c7ccc9c(=O)n(CCCN(C)C)c(=O)c8c9c76)nn5)cc(c24)C1=O)C(=O)N(CCCN(C)C)C3=O,logK,"[1]; 1:1 complex, cumulative 1:2 12.48, 1:3 17.70",5.82 ± 0.02
same,logK,"[2]; cumulative 1:2 14.68, 1:3 20.37",7.67 ± 0.05
same,logK,"[3]; cumulative 1:2 14.36, 2:1 11.69",7.77 ± 0.12
same,logK,"[4]; cumulative constant of 1:2 (DNA:dyad) complex, 1:4 26.88, 2:1 11.55",13.80 ± 0.05
